Biological target: GLP-1 Receptor (Homo sapiens, UniProt P43220)
Assay: GLP-1R agonist cAMP stimulation assay (HEK293/GLP1R/CRE-Luc cells, HTRF cAMP)
Assay type: cell-based
Details: not given
Experimental: Activation of GLP-1 receptor is known to stimulate cyclic AMP (cAMP) production in cells which indicates primary coupling to the Gαs subunit of the G protein heterotrimeric complex.
To optimize functional activity directed toward Gαs coupling, a HEK293/CRE-Luc cell line developed by HDB stably expressing the GLP-1 Receptor was used. […] 1×10^5 cells/mL HEK293/GLP1R/CRE-LUC(HD Biosciences) cell suspensions prepared with assay buffer[DPBS containing 0.5 mM IBMX (Sigma, Cat #I5879) and 0.1% BSA (GENVIEW, Cat #FA016-100g)], 10 uL cell suspensions were added to each well of previous generated assay plate which already contains 50 nl compound at 200×concentration using ThermoFisher Multidrop Combi (1000 cells/well). Seal the plate and incubate at 37° C. with 5% CO2 for 30 min.
After incubation the cAMP assay signal was generated using cAMP dynamic 2 Kit (Cisbio). 5 μL cAMP-d2 working solution was added to each well, followed with 5 μL Anti-cAMP antibody-cryptate working solution added to each well using ThermoFisher Multidrop Combi. Incubate at room temperature for 1 hour protected from light.

Sequence of GLP-1 Receptor (P43220 24-463): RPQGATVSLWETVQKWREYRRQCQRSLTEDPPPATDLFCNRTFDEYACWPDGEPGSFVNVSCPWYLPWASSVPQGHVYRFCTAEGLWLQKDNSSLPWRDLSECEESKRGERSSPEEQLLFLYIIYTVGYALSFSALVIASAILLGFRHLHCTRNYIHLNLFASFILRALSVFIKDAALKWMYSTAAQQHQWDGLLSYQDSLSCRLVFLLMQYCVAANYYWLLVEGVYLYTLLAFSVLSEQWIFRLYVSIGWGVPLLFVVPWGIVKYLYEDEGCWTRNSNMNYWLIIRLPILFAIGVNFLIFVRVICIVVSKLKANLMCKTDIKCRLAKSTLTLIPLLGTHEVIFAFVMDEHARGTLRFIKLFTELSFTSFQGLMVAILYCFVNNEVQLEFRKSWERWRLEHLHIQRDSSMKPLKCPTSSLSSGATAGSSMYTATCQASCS

Row | Compound | GLP1R cAMP Stimulation DR: pEC50
1 | CC(c1cccc(OC2CCN(Cc3nc4ccc(C(=O)O)nc4n3C[C@@H]3CCO3)CC2)n1)c1ccc(Cl)cc1F (stereo partly drawn) [Compound 128a, 2-{[4-({6-[1-(4-chloro-2-fluorophenyl)ethyl]pyridin-2-yl}oxy)piperidin-1-yl]methyl}-3-{[(2S)-oxetan-2-yl]methyl}-3H-imidazo[4,5-b]pyridine-5-carboxylic acid] | 8.9

Same assay, conditions: 30 min, 37° C.

Row | Compound | GLP1R cAMP Stimulation DR: pEC50
2 | O=C(O)c1ccc2nc(CN3CCC(c4cccc5nc(Cc6ccc(Cl)cc6F)oc45)CC3)n(C[C@@H]3CCO3)c2n1 [Compound 143a, (S)-2-((4-(2-(4-chloro-2-fluorobenzyl)benzo[d]oxazol-7-yl)piperidin-1-yl)methyl)-3-(oxetan-2-ylmethyl)-3H-imidazo[4,5-b]pyridine-5-carboxylic acid] | 9.3

Same assay, conditions: HEK293/CRE-Luc cells stably expressing GLP-1 Receptor; 30 min, 37° C.

Row | Compound | GLP1R cAMP Stimulation DR: pEC50
3 | O=C(O)c1ccc2nc(CN3CCC(Cc4cccc(Oc5ccc(Cl)cc5F)n4)CC3)n(C[C@@H]3CCO3)c2n1 [Compound 121a, 2-[(4-{[6-(4-chloro-2-fluorophenoxy)pyridin-2-yl]methyl}piperidin-1-yl)methyl]-3-{[(2S)-oxetan-2-yl]methyl}-3H-imidazo[4,5-b]pyridine-5-carboxylic acid] | 8.2
4 | O=C(O)c1ccc2nc(CN3CCC(Oc4ccnc(Cc5ccc(Cl)cc5)n4)CC3)n(C[C@H]3CCOC3)c2n1 [Compound 196a, (R)-2-((4-((2-(4-chlorobenzyl)pyrimidin-4-yl)oxy)piperidin-1-yl)methyl)-3-((tetrahydrofuran-3-yl)methyl)-3H-imidazo[4,5-b]pyridine-5-carboxylic acid] | 8.9
5 | O=C(O)c1cnc2nc(CN3CCC(Oc4ccnc(Cc5ccc(Cl)cc5F)n4)CC3)n(C[C@@H]3CCO3)c2c1 [Compound 161a, 2-{[4-({2-[(4-chloro-2-fluorophenyl)methyl]pyrimidin-4-yl}oxy)piperidin-1-yl]methyl}-1-{[(2S)-oxetan-2-yl]methyl}-1H-imidazo[4,5-b]pyridine-6-carboxylic acid] | 9.7
6 | O=C(O)c1ccc2nc(CN3CCC(Oc4cccc(Cn5ccc(Cl)cc5=O)n4)CC3)n(C[C@@H]3CCO3)c2n1 [Compound 149a, 2-{[4-({6-[(4-chloro-2-oxo-1,2-dihydropyridin-1-yl)methyl]pyridin-2-yl}oxy)piperidin-1-yl]methyl}-3-{[(2S)-oxetan-2-yl]methyl}-3H-imidazo[4,5-b]pyridine-5-carboxylic acid] | 8.3
7 | N#CC1(Cn2c(CN3CCC(Oc4ccnc(Cc5ccc(Cl)cc5F)n4)CC3)nc3ccc(C(=O)O)cc32)CC1 [Compound 162, 2-{[4-({2-[(4-chloro-2-fluorophenyl)methyl]pyrimidin-4-yl}oxy)piperidin-1-yl]methyl}-1-[(1-cyanocyclopropyl)methyl]-1H-1,3-benzodiazole-6-carboxylic acid] | 10.1
8 | O=C(O)c1ccc2nc(CN3CCC(Oc4cccc(Cc5cccc(Cl)c5)n4)CC3)n(C[C@@H]3CCO3)c2n1 [Compound 125a, (S)-2-((4-((6-(3-chlorobenzyl)pyridin-2-yl)oxy)piperidin-1-yl)methyl)-3-(oxetan-2-ylmethyl)-3H-imidazo[4,5-b]pyridine-5-carboxylic acid] | 8.9
9 | O=C(O)c1ccc2nc(CN3CCC(Oc4ccn(Cc5ccc(Cl)cc5F)n4)CC3)n(C[C@@H]3CCO3)c2c1 [Compound 116a, 2-{[4-({1-[(4-chloro-2-fluorophenyl)methyl]-1H-pyrazol-3-yl}oxy)piperidin-1-yl]methyl}-1-{[(2S)-oxetan-2-yl]methyl}-1H-1,3-benzodiazole-6-carboxylic acid] | 8.6
10 | O=C(O)c1ccc2nc(CN3CCC(Oc4cccc(Cc5ccc(Cl)cc5)c4F)CC3)n(C[C@@H]3CCO3)c2n1 [Compound 157a, 2-[(4-{3-[(4-chlorophenyl)methyl]-2-fluorophenoxy}piperidin-1-yl)methyl]-3-{[(2S)-oxetan-2-yl]methyl}-3H-imidazo[4,5-b]pyridine-5-carboxylic acid] | 7.4
11 | O=C(O)c1ccc2nc(Cc3ccc(Oc4nc(Cc5ccc(Cl)cc5)ncc4F)cc3)n(C[C@@H]3CCO3)c2n1 [Compound 189a, 2-{[4-({2-[(4-chlorophenyl)methyl]-5-fluoropyrimidin-4-yl}oxy)phenyl]methyl}-3-{[(2S)-oxetan-2-yl]methyl}-3H-imidazo[4,5-b]pyridine-5-carboxylic acid] | 9.2
12 | O=C(O)c1ccc2nc(C[C@H]3CC[C@H](Oc4ccnc(Cc5ccc(Cl)cc5F)n4)CC3)n(C[C@@H]3CCO3)c2n1 [Compound 175b, 3-{[(2S)-oxetan-2-yl]methyl}-2-{[trans-4-({2-[(4-chloro-2-fluorophenyl)methyl]pyrimidin-4-yl}oxy)cyclohexyl]methyl}-3H-imidazo[4,5-b]pyridine-5-carboxylic acid] | 10.2
13 | O=C(O)c1ccc2nc(CN3CCC(n4ccc5ccc(Cc6ccc(Cl)cc6F)nc54)CC3)n(C[C@@H]3CCO3)c2n1 [Compound 140a, 2-[(4-{6-[(4-chloro-2-fluorophenyl)methyl]-1H-pyrrolo[2,3-b]pyridin-1-yl}piperidin-1-yl)methyl]-3-{[(2S)-oxetan-2-yl]methyl}-3H-imidazo[4,5-b]pyridine-5-carboxylic acid] | 8.9
14 | O=C(O)c1ccc2nc(CN3CCC(Oc4ccnc(Cc5ccc(Cl)cc5F)n4)C(F)(F)C3)n(C[C@@H]3CCO3)c2n1 (stereo partly drawn) [Compound 168a, 2-{[4-({2-[(4-chloro-2-fluorophenyl)methyl]pyrimidin-4-yl}oxy)-3,3-difluoropiperidin-1-yl]methyl}-3-{[(2S)-oxetan-2-yl]methyl}-3H-imidazo[4,5-b]pyridine-5-carboxylic acid] | 8.9
15 | Cc1cc(Cc2ccc(Cl)cc2)nc(OC2CCN(Cc3nc4ccc(C(=O)O)nc4n3C[C@@H]3CCO3)CC2)c1 [Compound 154a, 2-{[4-({6-[(4-chlorophenyl)methyl]-4-methylpyridin-2-yl}oxy)piperidin-1-yl]methyl}-3-{[(2S)-oxetan-2-yl]methyl}-3H-imidazo[4,5-b]pyridine-5-carboxylic acid] | 7.6
16 | NC(=O)c1ccc2nc(CN3CCC(Oc4ccnc(Cc5ccc(Cl)cc5)n4)CC3)n(C[C@@H]3CCO3)c2n1 [Compound 200a, (S)-2-((4-((2-(4-chlorobenzyl)pyrimidin-4-yl)oxy)piperidin-1-yl)methyl)-3-(oxetan-2-ylmethyl)-3H-imidazo[4,5-b]pyridine-5-carboxamide] | 7.1
17 | O=C(O)c1ccc2nc(CN3CCC(c4cccc5cn(Cc6ccc(Cl)cc6F)nc45)CC3)n(C[C@@H]3CCO3)c2n1 [Compound 142a, (S)-2-((4-(2-(4-chloro-2-fluorobenzyl)-2H-indazol-7-yl)piperidin-1-yl)methyl)-3-(oxetan-2-ylmethyl)-3H-imidazo[4,5-b]pyridine-5-carboxylic acid] | 8.8
18 | O=C(O)c1ccc2nc(Cc3ccc(Oc4ccnc(Cc5ccc(Cl)cc5)n4)cc3)n(C[C@@H]3CCO3)c2c1 [Compound 187a, 2-{[4-({2-[(4-chlorophenyl)methyl]pyrimidin-4-yl}oxy)phenyl]methyl}-1-{[(2S)-oxetan-2-yl]methyl}-1H-1,3-benzodiazole-6-carboxylic acid] | 8.9
19 | O=C(O)c1ccc2nc(CN3CCC(Oc4nc(Cc5ccc(Cl)cc5)ncc4F)CC3)n(C[C@H]3CCOC3)c2n1 [Compound 197a, (R)-2-((4-((2-(4-chlorobenzyl)-5-fluoropyrimidin-4-yl)oxy)piperidin-1-yl)methyl)-3-((tetrahydrofuran-3-yl)methyl)-3H-imidazo[4,5-b]pyridine-5-carboxylic acid] | 8.6
20 | O=C(O)c1ccc2nc(CN3CCC(Oc4nn(Cc5ccc(Cl)cc5F)cc4Cl)CC3)n(C[C@@H]3CCO3)c2n1 [Compound 183a, 2-{[4-({4-chloro-1-[(4-chloro-2-fluorophenyl)methyl]-1H-pyrazol-3-yl}oxy)piperidin-1-yl]methyl}-3-{[(2S)-oxetan-2-yl]methyl}-3H-imidazo[4,5-b]pyridine-5-carboxylic acid] | 9.1
21 | O=C(O)c1ccc2nc(CN3CCC(Oc4ccc(F)c(Cc5ccc(Cl)cc5F)n4)CC3)n(C[C@@H]3CCO3)c2n1 [Compound 150a, (S)-2-((4-((6-(4-chloro-2-fluorobenzyl)-5-fluoropyridin-2-yl)oxy)piperidin-1-yl)methyl)-3-(oxetan-2-ylmethyl)-3H-imidazo[4,5-b]pyridine-5-carboxylic acid] | 7.2

Same assay, conditions: HEK293/CRE-Luc cells stably expressing GLP-1 Receptor; 30 min, 37° C.; read-out: GLP1R cAMP Stimulation DR: EC50

Row | Compound | EC50 [nM]
22 | Cc1ccc(OC2CCN(Cc3nc4ccc(C(=O)O)nc4n3CC3CCO3)CC2)nc1Cc1ccc(Cl)cc1F (stereo in doubt) [Compound 169a, 2-{[4-({6-[(4-chloro-2-fluorophenyl)methyl]-5-methylpyridin-2-yl}oxy)piperidin-1-yl]methyl}-3-{[(2S)-oxetan-2-yl]methyl}-3H-imidazo[4,5-b]pyridine-5-carboxylic acid] | 80

Source: US11926626B2, “Heterocyclic GLP-1 agonists” (Gasherbrum Bio, Inc., priority 2020, dated 2024)
